Data published in article PMC4549706, “Rational Design of Highly Potent and Slow-Binding Cytochrome bc1 Inhibitor as Fungicide by Computational Substitution Optimization” (Scientific Reports, 2015).
In brackets after ≈: the same amount, converted by molar mass. Where two headings read alike, the source gives them in different places.

Columns and labels:
[1] = system: Sphaerotheca fuliginea (S. fuliginea); assay: Greenhouse fungicidal activity, potted cucumber, powdery mildew; type: in vivo; conditions: Podosphaera fuliginea
Protocol: For a further validation, the controlling efficacy of compound 18 against downy mildew and powdery mildew disease was tested in greenhouse and field models.
The fungicidal activity of compound 18 against P. cubensis and S. fuliginea was evaluated according to a previously published method[30] and a potted-plant test method was adopted. […]
Greenhouse Fungicidal Activity
The fungicidal activity of compound 18 against P. cubensis and S. fuliginea was evaluated according to a previously published method 17 and a potted-plant test method was adopted. Commercial fungicide AZ was evaluated as a control under the same conditions.
Cucumber seeds were soaked in water for 2 h at 50℃ and then were kept moist for 24 h at 28℃ in an incubator. When the radicles grew to 0.5 cm, the seeds were grown in plastic pots containing a 1:1 (v/v) mixture of vermiculite and peat. At the stage of two leaves, all of the cucumber plants used for inoculations were divided into two groups to test for protective and curative effects. In the protective action, compound 18 and commercial fungicide AZ were sprayed on the leaves before the inoculation. However, the fungal inoculation and chemical spraying are reverse in the […] action.
In the protective action, compound 18 and commercial fungicide AZ were sprayed with a hand spray on the surface of the seed leaves at concentrations of 200, 100, 50, 25, 12.5, 6.25, 3.125, 1.5625 mg/L. After 2 h, inoculations of P. cubensis and S. fuliginea were carried out by spraying a conidial suspension (concentration […]), which was repeated 4 times.
After inoculation, the cucumber seedlings were cultured in a culture room at 25±2℃, 70%~80% relative humidity, and 16L:8D photoperiod for 8 d. In the curative action, the fungal inoculation and chemical spraying were reversed with the protective action. Foliar spray with fungicides to inoculated cucumber plants (before disease expression) till near-run-oﬀ was made on the 7th and 15th day after emergence. The fungicidal activity was evaluated when the nontreated cucumber plant fully developed symptoms. The area of inoculated and treated leaves covered by disease symptoms was assessed and compared to that of nontreated ones to determine the average disease index.
The disease range (i) was visually evaluated on the […]rst true leaf and ranked as a percentage infected area using a rating of 0, 1, 3, 5, 7, or 9, denoting proportions of disease over the whole leaf area of 0%, < 5%, 6–10%, 11–25%, 26–50%, and > 50%, respectively 18.
(§1) The disease index and control effect of compound 18 were calculated via the following […]
(§2) Disease index (%) = ∑(Ni × i)/(N × 9) × 100 […]

[2] = system: Pseudoperonospora cubensis (Berk. et Curt.); assay: In vivo fungus growth inhibitory rate at 200 mg/L, downy mildew
Protocol: [a] Compounds are named as “series number-site number plus substitution group number” a: -F, b: -Cl, c:
-Br, d: -NO2, e: -CH3, f: -CF3, g: -OCH3, h: -OH, i: -NH2, j: -COOH.
[b] Substitution number and group.
[c] CH is “series 1” and N is “series 2”. […]
Table S2 Fungus growth inhibitory rate of target compounds (200 mg/L).
Comp. No. R X Sphaerotheca fuliginea Pseudoperonospora cubensis

P. cubensis = assay: Field trial, cucumber naturally infected, downy mildew; type: in vivo, Pseudoperonospora cubensis; conditions: 7th day
Protocol: To further study the potential of compound 18 against powdery mildew and downy mildew, field experiments were conducted during the growing season of summer squash and cucumber. The summer squash plants at a fruiting stage naturally infected by S. fuliginea were used. […] Almost no lesions were observed on the leaves of summer squash. […] Lesions on the leaves of control plants, however, expanded quickly, and intense fungal hyphae could be observed. The curative effect is approximately 64.85% for the AZ-treated (93.75 g.ai/ha) summer squash. In addition, field trials for the treatment of downy mildew of cucumber were also performed. Cucumber plants naturally infected by P. cubensis were used for the study. Fungi on the leaves of control plants expanded quickly and lesions could be observed.
In the field trials, summer squash plants which is naturally infected by S. fuliginea and cucumber plants which is naturally infected by P. cubensis were used.
as §1, §2
Each treatment took up in four plots and was distributed randomly in each […]eld. The relative control effects were assessed after the 7th day of foliar application 18. […]

| SMILES | EC90 ([1]; greenhouse, cucumber, sprayed after inoculation, read-out: curative EC90 against S. fuliginea) [µg/mL] | EC90 ([1]; greenhouse, cucumber, sprayed before inoculation, read-out: protective EC90 against S. fuliginea) [µg/mL] | Fungus growth inhibitory rate, Pseudoperonospora cubensis [2] | curative effect, downy mildew (P. cubensis) (P. cubensis; 75 g.ai/ha) [%] | EC90 ([1]; read-out: curative EC90 against S. fuliginea) [µg/mL] | EC90 ([1]; read-out: protective EC90 against S. fuliginea) [µg/mL] | Fungus growth inhibitory rate, Pseudoperonospora cubensis ([2]; listed as Comp. 18) [%] | curative effect, downy mildew (P. cubensis) (P. cubensis; 60 g.ai/ha) |
| --- | --- | --- | --- | --- | --- | --- | --- | --- |
| CO/C=C(/C(=O)OC)c1ccccc1Oc1cc(Oc2ccccc2C#N)ncn1 [AZ, Azoxystrobin, reference compound] | > 500 | 254 (≈ 630 µM) | 94% | 59.59 | – | – | – | – |
| COC=C(C(=O)OC)c1ccccc1CSc1nc2cc(OC)ccc2s1 [Compound 18] | – | – | completely inhibited | – | 32.9 (≈ 81.9 µM) | 1.89 (≈ 4.71 µM) | 100 | approximately 82.59% |
